Assay results from patent US10800725B2, “Arylpropionyl-triketone antibacterial agents” (priority 2010, dated 2020).
≈ marks a conversion by molar mass, not a printed value.

What was measured:
[1] = tested on: Staphylococcus aureus ATCC 12600; assay: MIC, spiral gradient endpoint assay; settings: ATCC12600, read-out: MIC S. aureus 12600
[2] = tested on: Francisella tularensis SCHU4; assay: microbe, parasite or virus in culture; format: cell-based; settings: SCHU4, read-out: MIC F. tularensis SCHU4
[3] = tested on: Enterococcus faecalis ATCC 19433; assay: MIC, spiral gradient endpoint assay; settings: ATCC19433, read-out: MIC E. faecalis 19433
[4] = tested on: Moraxella catarrhalis ATCC 25238; assay: MIC, spiral gradient endpoint assay (GC II agar, 5% CO2); settings: ATCC25238, read-out: MIC M. catarrhalis 25238
[5] = tested on: Streptococcus pneumoniae ATCC 49619; assay: as above; settings: ATCC49619, read-out: MIC S. pneumoniae 49619
[6] = tested on: Escherichia coli D21f2tolC; assay: MIC, spiral gradient endpoint assay; settings: read-out: MIC E. coli D21f2tolC
[7] = biological target: E. coli RNA polymerase σ70 holoenzyme (Escherichia coli (strain K12), UniProt P0A8T7+P0A8V2); assay: Fluorescence-detected RNA polymerase assay, E. coli RNAP; format: biochemical
Experimental: (§1) Fluorescence-detected RNA polymerase assays with E. coli RNA polymerase were performed by a modification of the procedure of Kuhlman et al., 2004 [Kuhlman, P., Duff, H. & Galant, A. (2004) A fluorescence-based assay for multisubunit DNA-dependent RNA polymerases. Anal. Biochem. 324, 183-190]. Reaction mixtures contained (20 μl): 0-100 nM test compound, 75 nM E. coli RNA polymerase σ^70 holoenzyme, 20 nM 384 bp DNA fragment containing the bacteriophage T4 N25 promoter, 100 μM ATP, 100 μM GTP, 100 μM UTP, 100 μM CTP, 50 mM Tris-HCl, pH 8.0, 100 mM KCl, 10 mM MgCl2, 1 mM DTT, 10 μg/ml bovine serum albumin, and 5.5% glycerol. Reaction components other than DNA and NTPs were pre-incubated for 10 min at 37° C. Reactions were carried out by addition of DNA and incubation for 5 min at 37° C., followed by addition of NTPs and incubation for 60 min at 37° C. DNA was removed by addition of 1 μl 5 mM CaCl2 and 2 U DNaseI (Ambion, Inc.), followed by incubation for 90 min at 37° C. RNA was quantified by addition of 100 μl RiboGreen RNA Quantitation Reagent (Invitrogen, Inc.; 1:500 dilution in Tris-HCl, pH 8.0, 1 mM EDTA), followed by incubation for 10 min at 25° C., followed by measurement of fluorescence intensity [excitation wavelength=485 nm and emission wavelength=535 nm; QuantaMaster QM1 spectrofluorometer (PTI, Inc.)]. IC50 is defined as the concentration of inhibitor resulting in 50% inhibition of RNA polymerase activity.

[8] = biological target: S. aureus RNA polymerase core enzyme + σA (Staphylococcus aureus (strain NCTC 8325 / PS 47), UniProt P47768+Q2G0N5); assay: Fluorescence-detected RNA polymerase assay, S. aureus RNAP; format: biochemical
Experimental: as §1
(§2) Fluorescence-detected RNA polymerase assays with S. aureus RNA polymerase were performed as in Example 21.1, using reaction mixtures containing (20 μl): 0-100 nM test compound, 75 nM S. aureus RNA polymerase core enzyme, 300 nM S. aureus σ^A, 20 nM 384 bp DNA fragment containing the bacteriophage T4 N25 promoter, 100 μM ATP, 100 μM GTP, 100 μM UTP, 100 μM CTP, 40 mM Tris-HCl, pH 8.0, 80 mM NaCl, 5 mM MgCl2, 2.5 mM DTT, and 12.7% glycerol. IC50 is defined as the concentration of inhibitor resulting in 50% inhibition of RNA polymerase activity.

[9] = biological target: M. tuberculosis RNA polymerase core enzyme + σA (Mycobacterium tuberculosis (strain ATCC 25618 / H37Rv), UniProt P9WGY7+P9WGY9); assay: Fluorescence-detected RNA polymerase assay, M. tuberculosis RNAP; format: biochemical
Experimental: as §1
as §2, with “M. tuberculosis” for “S. aureus”

[10] = tested on: Bacillus anthracis Vollum-1b; assay: microbe, parasite or virus in culture; format: cell-based; settings: VOLLUM1B, read-out: MIC B. anthracis Vollum-1b
[11] = tested on: Streptococcus pyogenes ATCC 12344; assay: MIC, spiral gradient endpoint assay (GC II agar, 5% CO2); settings: ATCC12344, read-out: MIC S. pyogenes 12344
[12] = tested on: Mycobacterium tuberculosis H37Rv; assay: MIC, microplate Alamar Blue assay; settings: read-out: MIC M. tuberculosis H37Rv
[13] = tested on: Staphylococcus aureus BAA-1717 MRSA (USA300); assay: MIC, spiral gradient endpoint assay; settings: read-out: MIC S. aureus MRSA 1717
[14] = tested on: Staphylococcus aureus ATCC 13709 MSSA; assay: MIC, spiral gradient endpoint assay; settings: read-out: MIC S. aureus 13709
[15] = tested on: Staphylococcus aureus BAA-1707 MRSA (MW2); assay: MIC, spiral gradient endpoint assay; settings: read-out: MIC S. aureus MRSA 1707
[16] = tested on: Enterococcus faecium ATCC 19434; assay: MIC, spiral gradient endpoint assay; settings: ATCC19434, read-out: MIC E. faecium 19434

Compound	MIC [1]	MIC [2]	MIC [3]	MIC [4]	MIC [5]	MIC [6]	IC50 [7]	IC50 [8]	IC50 [9]	MIC [10]	MIC [11]	MIC [12]	MIC [13]	MIC [14]	MIC [15]	MIC [16]
COc1ccc(CCC(=O)C2=C(O)C(CCC(C)C)=C(O)C(CCC(C)C)(CCC(C)C)C2=O)cc1 [Compound 6, 3,5-dihydroxy-2-(3-(4-methoxyphenyl)propanoyl)-4,6,6-triisopentylcyclohexa-2,4-dienone]	0.6 µg/mL (≈ 1.2 µM)	> 50 µg/mL	12 µg/mL (≈ 24.1 µM)	19 µg/mL (≈ 38.1 µM)	5.6 µg/mL (≈ 11.2 µM)	6 µg/mL (≈ 12 µM)	1.8 µM	3.4 µM	1.2 µM	0.098 µg/mL (≈ 0.197 µM)	15 µg/mL (≈ 30.1 µM)	50 µg/mL (≈ 100 µM)				
CC(C)CCC1=C(O)C(CCC(C)C)(CCC(C)C)C(=O)C(C(=O)CCc2ccccc2)=C1O [Compound 15, 3,5-dihydroxy-2-(3-phenylpropanoyl)-4,6,6-triisopentylcyclohexa-2,4-dienone]	0.5 µg/mL (≈ 1.07 µM)	0.19 µg/mL (≈ 0.405 µM)	1 µg/mL (≈ 2.13 µM)	25 µg/mL (≈ 53.3 µM)	12 µg/mL (≈ 25.6 µM)	4 µg/mL (≈ 8.53 µM)	3.5 µM	11 µM	2.6 µM	0.098 µg/mL (≈ 0.209 µM)	12 µg/mL (≈ 25.6 µM)	50 µg/mL (≈ 107 µM)	0.5 µg/mL (≈ 1.07 µM)	0.5 µg/mL (≈ 1.07 µM)	0.4 µg/mL (≈ 0.853 µM)	1.5 µg/mL (≈ 3.2 µM)
CCC1=C(O)C(CC)(CC)C(=O)C(C(=O)CCc2ccccc2)=C1O [Compound 16, 3,5-dihydroxy-2-(3-phenylpropanoyl)-4,6,6-triethylcyclohexa-2,4-dienone]	4 µg/mL (≈ 11.7 µM)		19 µg/mL (≈ 55.5 µM)	> 40 µg/mL	15 µg/mL (≈ 43.8 µM)	5 µg/mL (≈ 14.6 µM)	> 400 µM	> 400 µM	> 400 µM		19 µg/mL (≈ 55.5 µM)	> 50 µg/mL	8 µg/mL (≈ 23.4 µM)	6 µg/mL (≈ 17.5 µM)	6 µg/mL (≈ 17.5 µM)	5 µg/mL (≈ 14.6 µM)
CCCC1=C(O)C(CCC)(CCC)C(=O)C(C(=O)CCc2ccccc2)=C1O [Compound 17, 3,5-dihydroxy-2-(3-phenylpropanoyl)-4,6,6-tripropylcyclohexa-2,4-dienone]	1 µg/mL (≈ 2.6 µM)		3 µg/mL (≈ 7.8 µM)	> 40 µg/mL	15 µg/mL (≈ 39 µM)	1.3 µg/mL (≈ 3.38 µM)	70 µM	> 400 µM	140 µM		19 µg/mL (≈ 49.4 µM)	> 50 µg/mL	2 µg/mL (≈ 5.2 µM)	2 µg/mL (≈ 5.2 µM)	2 µg/mL (≈ 5.2 µM)	1 µg/mL (≈ 2.6 µM)
CCCCC1=C(O)C(CCCC)(CCCC)C(=O)C(C(=O)CCc2ccccc2)=C1O [Compound 18, 3,5-dihydroxy-2-(3-phenylpropanoyl)-4,6,6-tributylcyclohexa-2,4-dienone]	< 0.5 µg/mL	25 µg/mL (≈ 58.6 µM)	11 µg/mL (≈ 25.8 µM)	24 µg/mL (≈ 56.3 µM)	9.3 µg/mL (≈ 21.8 µM)	1.2 µg/mL (≈ 2.81 µM)	33 µM	80 µM	22 µM	0.049 µg/mL (≈ 0.115 µM)	12 µg/mL (≈ 28.1 µM)	50 µg/mL (≈ 117 µM)	< 0.5 µg/mL	0.8 µg/mL (≈ 1.88 µM)	0.8 µg/mL (≈ 1.88 µM)	0.6 µg/mL (≈ 1.41 µM)
